# Read-outs that look alike come from different tables or passages of the source.
# Key:
# [1] = Chip-to-human extrapolation; conditions: for predicted renal clearance/GFR ratio from the chip: Chip+Model, ETS=0
# [2] = cited from earlier work
# [3] = smelter workers; ref Ellis et al. (1981); cited from earlier work
# [4] = Rapid equilibrium dialysis; conditions: for protein binding in the culture media: serum-supplemented media, rapid equilibrium dialysis
# [5] = test system: Primary human renal proximal tubule epithelial cells (RPTECs); conditions: for total amount of cadmium assumed accumulated in RPTECs: estimated from measured uptake
# [6] = in vitro; conditions: human
# [7] = in vitro
# [8] = human, indicated by in vivo renal clearance data; ref Contrepois et al., 1985; cited from earlier work
# [9] = human; cited from earlier work
# [10] = serum
# [11] = test system: canine renal tubule cells; conditions: ref MacKay et al., 1998, cited from earlier work
# [12] = effluent compared against stock solutions
# [13] = kidney tubule chip, adjusted for non-specific binding, both concentrations
compound,measurement,setting,value
"[Cl][Cd][Cl] [Cadmium, cadmium chloride]",predicted renal clearance/GFR ratio from the chip,[1]; cadmium 0.05 μM (free 0.0145 μM),0.14±0.05
same,predicted renal clearance/GFR ratio from the chip,[1]; cadmium 0.5 μM (free 0.209 μM),0.39±0.17
same,back-calculated Cu/Cf in the chip,"[1]; from in vivo modeled CLR/GFR ratio 0.26 (cadmium, lower concentration)",68%
same,back-calculated Cu/Cf in the chip,"[1]; from in vivo modeled CLR/GFR ratio 0.29 (cadmium, higher concentration)",71%
same,geometric blood level,"[2]; general population (≥1 year of age) in the USA, ref Agency for Toxic Substances and Disease Registry",~ 0.002 μM
same,Cmax,"[2]; general population, Nigeria, ref Alli, 2015",~100 nM
same,Cmax,"[2]; human occupational, Nigeria, ref Alli, 2015",~1000 nM
same,concentrations in human kidney,[3],up to 400 μg/g
same,fraction protein-bound in the culture media,[4]; binding to serum proteins in culture media,up to 71%
same,total amount of cadmium assumed accumulated in RPTECs,[5]; after 22 days at 0.05 μM,3.2 µg/g
same,total amount of cadmium assumed accumulated in RPTECs,[5]; after 22 days at 0.5 μM,16.5 µg/g
same,uptake/reabsorption within the kidney tubule chip,[5]; [12],uptake
same,reabsorption (loss) from adjusted Cout/Cin,[5]; [13],24-43%
"N.N.[Cl][Pt][Cl] [Cisplatin, cisplatin]",Cmax,"[2]; human, reported range, ref Verschraagen et al., 2003",1400 to 13900 nM
same,recovery from effluent samples,"[5]; cell-seeded chip, at equilibrium",~100%
same,uptake/reabsorption within the kidney tubule chip,[5]; [12],little uptake
"CN1CC(=O)NC1=N [Creatinine, creatinine]",fraction unbound,[4],0.934 ± 0.06
same,protein binding in the culture media,[4],minimal protein binding
same,reabsorption (loss) from adjusted Cout/Cin,[5]; human,0-5%
"CNC(C)C1CCC(N)C(OC2C(N)CC(N)C(OC3OCC(C)(O)C(NC)C3O)C2O)O1 (stereo not drawn) [Gentamicin, gentamicin]",Cmax,"[2]; human, in vivo",~50000 nM
same,serum concentrations,[2]; in vivo,5300 ± 1300 ng/mL
same,recovery,[6],~100%
same,fraction unbound,[7]; Free fraction in cell culture media,0.897 ± 0.005
same,uptake/reabsorption within the kidney tubule chip,[5],little uptake
same,reabsorption (loss) from adjusted Cout/Cin,[5]; human,0-5%
same,net uptake by the RPTECs,"[5]; tissue chip, on average, 200 and 600 μM",< 0.5%
same,re-absorption in vivo,[8],around 20%
same,serum protein binding,[9],no serum protein binding
same,protein binding in the culture media,[10],minimal protein binding
"O=C(O)C(F)(F)C(F)(F)C(F)(F)C(F)(F)C(F)(F)C(F)(F)C(F)(F)F [PFOA, perfluorooctanoic acid]",blood levels,"[2]; occupationally exposed subjects, ref ATSDR, 2018",≤ 24200 nM
same,fraction unbound,[7],0.986 ± 0.149
same,protein binding in the culture media,[4],minimal protein binding
same,uptake/reabsorption within the kidney tubule chip,[5]; [12],uptake
same,reabsorption (loss) from adjusted Cout/Cin,[5]; [13],3-13%
inulin,recovery in luminal effluent,[11]; bioreactor with confluent cells,≥ 98.9%
same,recovery in luminal effluent,[11]; blank devices,≤ 7.4%
